Among the data in patent US11986532B2 (Arvinas Operations, Inc., priority 2021, dated 2024) are Dmax and DC50 values, retold here.

Like-named read-outs stand apart in the source and are kept apart here. Bounds are passed on as bounds.

The assay has as its target T1, BCL6 (Homo sapiens, UniProt P41182).
T1 construct: endogenous in cells; host or cells: T47D breast cancer epithelial cells
As to the kind of experiment: Immunofluorescence protocol for high content imaging of BCL6 (degradation) in T47D cells, 3 days compound treatment. It is filed as cell-based. To be noted: for Dmax: read-out: Mean Dmax (%)** category; for DC50: read-out: Mean DC50 (nM)* category. The method, boiled down: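 High content immunofluorescence imaging (10×, 4 fields/well) of BCL6 using rabbit primary antibody, Alexa-488 secondary, cell mask and Hoechst nuclear stain after PFA fixation. Before staining, T47D cells (7K/well) were exposed for 3 days at 37° C to 3-fold serial dilutions of compound, top final concentration 0.1 or 1 μM.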

Setting [1] is: T47D cells, 3 days compound treatment.

What is called Dmax is the largest share of the target that was removed. One may read the DC50 as the concentration giving 50% degradation. For `CNC(=O)COc1cc2cc(Nc3nc(N4CCC(O[C@H]5C[C@H](N6CC[C@H](c7ccc8c(c7F)CN(C7CCC(=O)NC7=O)C8=O)[C@@H](O)C6)C5)CC4)ncc3Cl)ccc2n(C(C)C)c1=O` (stereo partly drawn) [Compound 284, 2-({6-[(5-chloro-2-{4-[(1r,3r)-3-[(3R,4R)-4-[2-(2,6-dioxopiperidin-3-yl)-4-fluoro-1-oxo-2,3-dihydro-1H-isoindol-5-yl]-3-hydroxypiperidin-1-yl]cyclobutoxy]piperidin-1-yl}pyrimidin-4-yl)amino]-2-oxo-1-(propan-2-yl)-1,2-dihydroquinolin-3-yl}oxy)-N-methylacetamide], the DC50 is < 10 nM. Moreover, the Dmax (T47D) was in the range of 50 to 70%.
Regarding `CNC(=O)COc1cc2cc(Nc3nc(N4CCC5(CCN(CC6(F)CCN(c7ccc(F)c8c7C(=O)N(C7CCC(=O)NC7=O)C8)CC6)CC5)CC4)ncc3Cl)ccc2n(C(C)C)c1=O` (stereo not shown) [Compound 130, 2-{[6-({5-chloro-2-[9-({1-[2-(2,6-dioxopiperidin-3-yl)-7-fluoro-3-oxo-2,3-dihydro-1H-isoindol-4-yl]-4-fluoropiperidin-4-yl}methyl)-3,9-diazaspiro[5.5]undecan-3-yl]pyrimidin-4-yl}amino)-2-oxo-1-(propan-2-yl)-1,2-dihydroquinolin-3-yl]oxy}-N-methylacetamide], under setting [1], the DC50 is ≥ 100 nM and the Dmax was ≥ 70%.
Taken in the same sequence, the figures for `CNC(=O)COc1cc2cc(Nc3nc(N4CCC(O[C@H]5C[C@H](N6CCC(c7ccc8c(c7F)CN(C7CCC(=O)NC7=O)C8=O)C(F)C6)C5)CC4)ncc3Cl)ccc2n(C(C)C)c1=O` (stereo partly shown) [Compound 201, 2-[[6-[[5-chloro-2-[4-[3-[4-[2-(2,6-dioxo-3-piperidyl)-4-fluoro-1-oxo-isoindolin-5-yl]-3-fluoro-1-piperidyl]cyclobutoxy]-1-piperidyl]pyrimidin-4-yl]amino]-1-isopropyl-2-oxo-3-quinolyl]oxy]-N-methyl-acetamide] were < 10 nM and ≥ 70%.
For `CNC(=O)COc1cc2cc(Nc3nc(N4CCC(O[C@H]5C[C@H](N6CCN(c7c(F)cc8c(c7F)CN(C7CCC(=O)NC7=O)C8=O)CC6)C5)CC4)ncc3Cl)ccc2n(C(C)C)c1=O` (stereo partly shown) [Compound 386, 2-({6-[(5-chloro-2-{4-[(1r,3r)-3-{4-[2-(2,6-dioxopiperidin-3-yl)-4,6-difluoro-1-oxo-2,3-dihydro-1H-isoindol-5-yl]piperazin-1-yl}cyclobutoxy]piperidin-1-yl}pyrimidin-4-yl)amino]-2-oxo-1-(propan-2-yl)-1,2-dihydroquinolin-3-yl}oxy)-N-methylacetamide], the DC50 is < 10 nM. Further, for the setting “T47D”, the Dmax was 50 to 70%.
Take `CNC(=O)COc1cc2cc(Nc3nc(N4CCC(O[C@H]5C[C@H](N6CC7(CCN(c8ccc9c(c8F)CN(C8CCC(=O)NC8=O)C9=O)C7)C6)C5)CC4)ncc3Cl)ccc2n(C(C)C)c1=O` (stereo partly shown) [Compound 400, 2-({6-[(5-chloro-2-{4-[(1r,3r)-3-{6-[2-(2,6-dioxopiperidin-3-yl)-4-fluoro-1-oxo-2,3-dihydro-1H-isoindol-5-yl]-2,6-diazaspiro[3.4]octan-2-yl}cyclobutoxy]piperidin-1-yl}pyrimidin-4-yl)amino]-2-oxo-1-(propan-2-yl)-1,2-dihydroquinolin-3-yl}oxy)-N-methylacetamide]: the DC50 is < 10 nM. For the same molecule, under “T47D”, the Dmax is ≥ 70%.
Turning to `CNC(=O)COc1cc2cc(Nc3nc(N4CCC(OC5CCC6(CC5)CN(c5cccc7c5CN(C5CCC(=O)NC5=O)C7=O)C6)CC4)ncc3Cl)ccc2n(C(C)C)c1=O` (stereo not shown) [Compound 61, 2-{[6-({5-chloro-2-[4-({2-[2-(2,6-dioxopiperidin-3-yl)-1-oxo-2,3-dihydro-1H-isoindol-4-yl]-2-azaspiro[3.5]nonan-7-yl}oxy)piperidin-1-yl]pyrimidin-4-yl}amino)-2-oxo-1-(propan-2-yl)-1,2-dihydroquinolin-3-yl]oxy}-N-methylacetamide], under setting [1], the DC50 is < 10 nM and the Dmax is 50 to 70%.
Taken in the same sequence, the figures for `CNC(=O)COc1cc2cc(Nc3nc(N4CCC(F)(CN5CCC6(CC5)CCN(c5cc(F)cc7c5CN(C5CCC(=O)NC5=O)C7=O)CC6)CC4)ncc3Cl)ccc2n(C(C)C)c1=O` (stereo not shown) [Compound 73, 2-{[6-({5-chloro-2-[4-({9-[2-(2,6-dioxopiperidin-3-yl)-6-fluoro-1-oxo-2,3-dihydro-1H-isoindol-4-yl]-3,9-diazaspiro [5.5]undecan-3-yl}methyl)-4-fluoropiperidin-1-yl]pyrimidin-4-yl}amino)-2-oxo-1-(propan-2-yl)-1,2-dihydroquinolin-3-yl]oxy}-N-methylacetamide] were < 10 nM and 50 to 70%.
As for `CNC(=O)COc1cc2cc(Nc3nc(N4CCC(CN5CC(N6CCN(c7ccc8c(c7)CN(C7CCC(=O)NC7=O)C8=O)CC6)C5)CC4)ncc3Cl)ccc2n(C(C)C)c1=O` (stereo not shown) [Compound 242, 2-({6-[(5-chloro-2-{4-[(3-{4-[2-(2,6-dioxopiperidin-3-yl)-1-oxo-2,3-dihydro-1H-isoindol-5-yl]piperazin-1-yl}azetidin-1-yl)methyl]piperidin-1-yl}pyrimidin-4-yl)amino]-2-oxo-1-(propan-2-yl)-1,2-dihydroquinolin-3-yl}oxy)-N-methylacetamide], the DC50 is < 10 nM. The Dmax (T47D) is ≥ 70%.
Take `CNC(=O)COc1cc2cc(Nc3nc(N4CCC(F)(CN5CCC6(CC5)CN(c5cccc7c5C(=O)N(C5CCC(=O)NC5=O)C7=O)C6)CC4)ncc3Cl)ccc2n(C(C)C)c1=O` (stereo not shown) [Compound 44, 2-{[6-({5-chloro-2-[4-({2-[2-(2,6-dioxopiperidin-3-yl)-1,3-dioxo-2,3-dihydro-1H-isoindol-4-yl]-2,7-diazaspiro [3.5]nonan-7-yl}methyl)-4-fluoropiperidin-1-yl]pyrimidin-4-yl}amino)-2-oxo-1-(propan-2-yl)-1,2-dihydroquinolin-3-yl]oxy}-N-methylacetamide]: under setting [1], the DC50 is < 10 nM and the maximal degradation (Dmax) was ≥ 70%.
For `CNC(=O)COc1cc2cc(Nc3nc(N4CCC(O[C@H]5C[C@H](N6CCC7(CC6)CN(c6ccc8c(c6F)CN(C6CCC(=O)NC6=O)C8=O)C7)C5)CC4)ncc3Cl)ccc2n(C(C)C)c1=O` (stereo partly shown) [Compound 410, 2-({6-[(5-chloro-2-{4-[(1r,3r)-3-{2-[2-(2,6-dioxopiperidin-3-yl)-4-fluoro-1-oxo-2,3-dihydro-1H-isoindol-5-yl]-2,7-diazaspiro[3.5]nonan-7-yl}cyclobutoxy]piperidin-1-yl}pyrimidin-4-yl)amino]-2-oxo-1-(propan-2-yl)-1,2-dihydroquinolin-3-yl}oxy)-N-methylacetamide], the DC50 is < 10 nM. In addition, for the setting “T47D”, the maximal degradation (Dmax) was ≥ 70%.
Taken in the same sequence, the figures for `CNC(=O)COc1cc2cc(Nc3nc(N4CCC(O[C@H]5C[C@H](N6CC[C@H](c7ccc8c(c7F)CN(C7CCC(=O)NC7=O)C8=O)C(C)(C)C6)C5)CC4)ncc3Cl)ccc2n(C(C)C)c1=O` (stereo partly drawn) [Compound 431, 2-({6-[(5-chloro-2-{4-[(1r,3r)-3-[(4S)-4-[2-(2,6-dioxopiperidin-3-yl)-4-fluoro-1-oxo-2,3-dihydro-1H-isoindol-5-yl]-3,3-dimethylpiperidin-1-yl]cyclobutoxy]piperidin-1-yl}pyrimidin-4-yl)amino]-2-oxo-1-(propan-2-yl)-1,2-dihydroquinolin-3-yl}oxy)-N-methylacetamide] were < 10 nM and ≥ 70%.
